{"source": "patent US20130084287A1", "about": "“DIAGNOSTIC MARKERS” (GENENTECH, INC., priority 2011, published 2013)", "type_in_all_cases": "cell-based", "key": {"[1]": {"tested_on": "NSCLC cell lines", "assay": "erlotinib IC50 determination, Celltiter-Glo Luminescent Cell Viability Assay", "conditions": "for IC50: read-out: erlotinib sensitivity (IC50 class)", "protocol": "For erlotinib IC50 determination, cells were plated in quadruplicate at 3×10^2 cells per well in 384-well plates in RPMI containing 0.5% FBS (assay medium) and incubated overnight. 24 hours later, cells were treated with assay medium containing 3 nM TGFα and erlotinib at a dose range of 10 μM-1 pM final concentration. After 72 hrs, cell viability was measured using the Celltiter-Glo Luminescent Cell Viability Assay (Promega). The concentration of erlotinib resulting in 50% inhibition of cell viability was calculated from a 4-parameter curve analysis and was determined from a minimum of two experiments."}, "[2]": {"tested_on": "NSCLC cell lines", "assay": "TGFβ1 induction of EMT, 20-gene EMT expression panel and morphology", "conditions": "2 cell lines, 2 ng/mL TGFβ1", "protocol": "(§1) Cells were grown in RPMI 1640 supplemented with 10% fetal bovine serum and 2 mM L-Glutamine Cells were seeded on day 0 at 4000-9000 cells/cm2 and dosed with 1 μM 5-aza-2′-deoxycytidine (5-aza-dC) (SIGMA-ALDRICH Cat No. A3656) or DMSO control (Cat No. D2650) on days 1, 3, and 5. On day 6 cells were washed once in cold PBS and harvested by scraping in Trizol (Invitrogen, Cat No 15596018) and extracted for RNA or flash frozen for later RNA extraction. For induction of EMT, cells were plated at 20000-50000 cells/10 cm2 in complete medium and supplemented with 2 ng/mL human transforming growth factor beta 1 (TGFβ1) (R&D Systems, Cat No 100-B/CF) or PBS control. Media and TGFβ1 were replaced every 3 days, and RNA was extracted at 4-5 weeks following TGFβ1 induction of EMT. Gene expression changes were assessed using Taqman assays for the 20-gene EMT panel (FIG. 1).\n2 μl of total RNA was reverse-transcribed to cDNA and pre-amplified in a single reaction using Superscript III/Platinum Taq (Invitrogen) and Pre-amplification reaction mix (Invitrogen). 20 Taqman primer/probe sets selected for the EMT expression panel (FIG. 1) were included in the pre-amplification reaction at a final dilution of 0.05× original Taqman assay concentration (Applied Biosystems). […]\nPre-amplified cDNA was diluted 1.94-fold and then amplified using Taqman Universal PCR MasterMix (Applied Biosystems) on the BioMark BMK-M-96.96 platform (Fluidigm) according to the manufacturer's instructions. […] Two custom-designed reference genes that were previously evaluated for their expression stability across multiple cell lines, fresh-frozen tissue samples, and FFPE tissue samples, AL-1377271 and VPS-33B, were included in the expression panel. A mean of the Ct values for the two reference genes was calculated for each sample, and expression levels of EMT target genes were determined using the delta Ct (dCt) method as follows: Mean Ct (Target Gene)−Mean Ct (Reference Genes). […]"}, "[3]": {"tested_on": "NSCLC cell lines", "assay": "quantitative PCR of gene expression in 5-aza-dC-treated vs DMSO-treated NSCLC cell lines", "protocol": "as §1\nTo evaluate the role of methylation in regulating expression of the genes associated with select DMRs, quantitative PCR was carried out in a panel of 34 5-aza-2′-deoxycytidine (5-aza-dC) and dimethyl sulfoxide-treated NSCLC cell lines. […] From this group of genes, CLDN7 was selected as a representative marker of EMT and its methylation status was quantified by pyrosequencing in an extended panel of 42 cell lines.\nIn FIG. 5A, quantitative methylation was determined at 7 CpG sites by PyroMark analysis software using the equation: % methylation=(C peak height×100/C peak height+T peak height). Data are represented as the mean±SD percentage of methylation at 7 CpG sites. In FIG. 5B, relative expression of CLDN7 mRNA was determined using a standard ΔCt method in 42 (n=20 epithelial-like, 19 mesenchymal-like, 3 intermediate) DMSO-treated and 5-aza-dC-treated NSCLC cell lines. Expression values were calculated as a fold change in 5-aza-dC-treated relative to DMSO-treated control cells. Data are normalized to the housekeeping gene GAPDH and represented as the mean of 2 replicates. DMSO, dimethyl sulfoxide; GAPDH, glyceraldehyde-3-phosphate dehydrogenase."}}, "note": "Where two headings read alike, the source gives them in different places.", "data": [{"compound": "C#Cc1cccc(Nc2ncnc3cc(OCCOC)c(OCCOC)cc23)c1", "note": "[erlotinib, [6,7-bis(2-methoxyethoxy)-4-quinazolin-4-yl]-(3-ethynylphenyl) amine]", "values": [{"measurement": "IC50", "setting": "[1]; 6 EGFR-mutant NSCLC cell lines", "value": "≤ 2000", "unit": "nM"}, {"measurement": "IC50", "setting": "[1]; 72 h, RERF-LC-MS cell line, 72 hrs, 3 nM TGFα", "value": "≤ 2000", "unit": "nM"}, {"measurement": "erlotinib sensitivity", "setting": "[1]; H1993, MET amplification", "value": "resistance"}, {"measurement": "IC50", "setting": "[1]; Homo sapiens, NCI-H838, 72 h, H838 cell line, 72 hrs, 3 nM TGFα", "value": "≤ 2000", "unit": "nM"}, {"measurement": "IC50", "setting": "[1]; Homo sapiens, NCI-H2030, 72 h, H2030 cell line, 72 hrs, 3 nM TGFα", "value": "≤ 2000", "unit": "nM"}, {"measurement": "IC50", "setting": "[1]; Homo sapiens, SK-MES-1, 72 h, SK-MES-1 cell line, 72 hrs, 3 nM TGFα", "value": "≤ 2000", "unit": "nM"}, {"measurement": "erlotinib sensitivity", "setting": "[1]; epithelial-like line H1975, T790M mutation in EGFR", "value": "resistance"}, {"measurement": "IC50", "setting": "[1]; nearly all mesenchymal-like lines", "value": "≥ 8000", "unit": "nM"}]}, {"compound": "TGFβ1: human transforming growth factor beta 1 (R&D Systems), used for induction of EMT", "values": [{"measurement": "morphologic changes", "setting": "[2]", "value": "induced morphologic changes associated with an EMT"}, {"measurement": "expression of genes associated with a mesenchymal phenotype", "setting": "[2]; 20-gene EMT panel", "value": "upregulated"}, {"measurement": "expression of genes associated with an epithelial phenotype", "setting": "[2]; 20-gene EMT panel", "value": "downregulated"}]}, {"compound": "Nc1ncn([C@H]2C[C@H](O)[C@@H](CO)O2)c(=O)n1", "note": "[5-aza-dC, 5-aza-2′-deoxycytidine]", "values": [{"measurement": "induction of CLDN7 expression", "setting": "[3]; majority of the epithelial-like cell lines, 1 μM 5-aza-dC", "value": "not induced further"}, {"measurement": "induction of GRHL2, ESRP1, and CLDN7 transcripts", "setting": "[3]; mesenchymal-like versus epithelial-like lines, panel of 34 NSCLC cell lines", "value": "significant induction"}, {"measurement": "induction of CLDN7 expression, fold change in 5-aza-dC-treated relative to DMSO-treated control cells", "setting": "[3]; nearly all mesenchymal-like lines, 1 μM 5-aza-dC, normalized to GAPDH", "value": "> 10", "unit": "fold"}]}]}
